Tests used:
COX-1 = molecular target: T1, COX-1 (Ovis aries, UniProt P05979); test: biochemical; conditions: ovine COX-1/COX-2 assay kit; mean of two determinations, deviation < 10% of the mean
T1 construct: purchased Cayman chemical, MI, USA
T1 sequence (P05979 25-600): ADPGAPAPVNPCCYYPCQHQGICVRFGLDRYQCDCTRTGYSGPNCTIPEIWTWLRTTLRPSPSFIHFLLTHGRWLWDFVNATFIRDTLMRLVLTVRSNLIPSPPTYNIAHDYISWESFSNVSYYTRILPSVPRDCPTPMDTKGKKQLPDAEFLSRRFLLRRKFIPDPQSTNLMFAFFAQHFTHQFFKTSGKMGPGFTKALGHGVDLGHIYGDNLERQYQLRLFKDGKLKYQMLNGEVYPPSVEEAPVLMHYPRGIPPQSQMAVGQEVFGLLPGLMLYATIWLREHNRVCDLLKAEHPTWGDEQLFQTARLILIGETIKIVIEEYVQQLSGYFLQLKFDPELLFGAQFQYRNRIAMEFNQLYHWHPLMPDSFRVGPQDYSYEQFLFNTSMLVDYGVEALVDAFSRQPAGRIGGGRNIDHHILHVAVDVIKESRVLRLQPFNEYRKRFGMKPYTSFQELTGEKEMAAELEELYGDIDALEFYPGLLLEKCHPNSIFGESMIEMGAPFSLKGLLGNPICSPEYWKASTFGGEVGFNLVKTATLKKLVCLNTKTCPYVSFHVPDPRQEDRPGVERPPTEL
Procedure: (§1) In-vitro cyclooxygenase (COX) inhibition assays
(§2) The assay was performed using an enzyme chemiluminescent kit (Cayman chemical, MI, USA) according to our previously reported method ([10]).

COX-2 = molecular target: T2, COX-2 (Ovis aries, UniProt P79208); test: biochemical; conditions: for COX-2 S.I. (COX-1 IC50/ COX-2 IC50): in-vitro COX-2 selectivity index; for IC50: ovine COX-1/COX-2 assay kit, mean of two determinations, deviation < 10% of the mean
T2 construct: purchased Cayman chemical, MI, USA
T2 sequence (P79208 17-603): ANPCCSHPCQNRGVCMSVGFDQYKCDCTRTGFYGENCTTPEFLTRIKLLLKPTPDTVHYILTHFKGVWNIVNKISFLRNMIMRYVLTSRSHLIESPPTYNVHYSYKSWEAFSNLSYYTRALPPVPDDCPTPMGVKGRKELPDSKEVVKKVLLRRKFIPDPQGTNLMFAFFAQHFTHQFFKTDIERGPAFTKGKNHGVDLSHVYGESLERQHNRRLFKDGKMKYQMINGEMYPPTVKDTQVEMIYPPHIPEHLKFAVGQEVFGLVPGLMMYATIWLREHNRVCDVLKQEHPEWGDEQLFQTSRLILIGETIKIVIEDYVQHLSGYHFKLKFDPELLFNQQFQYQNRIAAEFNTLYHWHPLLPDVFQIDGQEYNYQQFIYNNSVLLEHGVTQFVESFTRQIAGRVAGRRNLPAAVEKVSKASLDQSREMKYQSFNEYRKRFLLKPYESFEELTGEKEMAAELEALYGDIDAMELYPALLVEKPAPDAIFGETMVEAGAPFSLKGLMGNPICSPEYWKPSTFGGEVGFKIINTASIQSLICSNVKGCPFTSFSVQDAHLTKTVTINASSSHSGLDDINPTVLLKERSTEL
Procedure: as §1, §2

Row | IC50 (COX-1) [µM] | COX-2 S.I. (COX-1 IC50/ COX-2 IC50) (COX-2) | IC50 (COX-2) [µM] | melting point [°C] | Structure (SMILES)
1 | 2.6 | 3.3 | 0.8 |  | CC1(C)CC(=O)C2=C(C1)NC(c1ccc(S(C)(=O)=O)cc1)=CC2c1ccccc1 (stereo not shown) [Compound 9a]
2 | 2.5 | 5.6 | 0.45 |  | Cc1ccc(C2C=C(c3ccc(S(C)(=O)=O)cc3)NC3=C2C(=O)CC(C)(C)C3)cc1 (stereo not shown) [Compound 9b]
3 | 16.6 |  | 0.17 | 250 to 253 | COc1ccc(C2C=C(c3ccc(S(C)(=O)=O)cc3)NC3=C2C(=O)CC(C)(C)C3)cc1 (stereo not shown) [Compound 9c, 7,8-Dihydro-7,7-dimethyl-4-(4-methoxyphenyl)-2-(4-(methylsulfonyl)phenyl) quinolin-5(1H, 4H, 6H)-one]
4 | 12.9 | 43 | 0.3 | 130 to 133 | CC1(C)CC(=O)C2=C(C1)NC(c1ccc(S(C)(=O)=O)cc1)=CC2c1ccc(F)cc1 (stereo not shown) [Compound 9d]
5 | 18.7 | 3.8 | 4.9 | 232 to 236 | CC1(C)CC(=O)C2=C(C1)NC(c1ccc(S(C)(=O)=O)cc1)=CC2c1ccc(Cl)cc1 (stereo not shown) [Compound 9e]
6 | 20.9 | 2.1 | 10.1 | 237 to 240 | CC1(C)CC(=O)C2=C(C1)NC(c1ccc(S(C)(=O)=O)cc1)=CC2c1ccc(Br)cc1 (stereo not shown) [Compound 9f]
7 | 17.6 | 1.1 | 16.6 |  | CC1(C)CC(=O)C2=C(C1)NC(c1ccc(S(C)(=O)=O)cc1)=CC2c1ccc([N+](=O)[O-])cc1 (stereo not shown) [Compound 9g]
8 | 3.6 | 3.1 | 1.16 | 205 to 208 | CC1(C)CC(=O)C2=C(C1)NC(c1ccccc1)=CC2c1ccc(S(C)(=O)=O)cc1 (stereo not shown) [Compound 9h]
9 | 2.9 | 2.2 | 1.3 | 223 to 225 | Cc1ccc(C2=CC(c3ccc(S(C)(=O)=O)cc3)C3=C(CC(C)(C)CC3=O)N2)cc1 (stereo not shown) [Compound 9i, 7,8-Dihydro-7,7-dimethyl-2-(4-methylphenyl)-4-(4-(methylsulfonyl)phenyl) quinolin-5(1H, 4H, 6H)-one]
10 | 18.7 | 62.3 | 0.3 | 226 to 230 | COc1ccc(C2=CC(c3ccc(S(C)(=O)=O)cc3)C3=C(CC(C)(C)CC3=O)N2)cc1 (stereo not shown) [Compound 9j, 7,8-Dihydro-2-(4-methoxyphenyl)-7,7-dimethyl-4-(4-(methylsulfonyl)phenyl) quinolin-5(1H, 4H, 6H)-one]
11 | 14.2 | 14.2 | 1 | 226 to 230 | CC1(C)CC(=O)C2=C(C1)NC(c1ccc(F)cc1)=CC2c1ccc(S(C)(=O)=O)cc1 (stereo not shown) [Compound 9k, 2-(4-Fluorophenyl)-7,8-dihydro-7,7-dimethyl-4-(4-(methylsulfonyl)phenyl) quinolin-5 (1H, 4H, 6H)-one]
12 | 21.6 | 3.1 | 6.9 | 226 to 230 | CC1(C)CC(=O)C2=C(C1)NC(c1ccc(Cl)cc1)=CC2c1ccc(S(C)(=O)=O)cc1 (stereo not shown) [Compound 9l, 2-(4-Cholorophenyl)-7,8-dihydro-7,7-dimethyl-4-(4-(methylsulfonyl)phenyl) quinolin-5(1H, 4H, 6H)-one]
13 | 17.9 | 1.3 | 13.2 | 226 to 230 | CC1(C)CC(=O)C2=C(C1)NC(c1ccc(Br)cc1)=CC2c1ccc(S(C)(=O)=O)cc1 (stereo not shown) [Compound 9m, 2-(4-Bromophenyl)-7,8-dihydro-7,7-dimethyl-4-(4-(methylsulfonyl)phenyl) quinolin-5 (1H, 4H, 6H)-one]
14 | 18.6 | 0.7 | 24.9 | 226 to 230 | CC1(C)CC(=O)C2=C(C1)NC(c1ccc([N+](=O)[O-])cc1)=CC2c1ccc(S(C)(=O)=O)cc1 (stereo not shown) [Compound 9n, 7,8-Dihydro-7,7-dimethyl-4-(4-(methylsulfonyl)phenyl)-2-(4-nitrophenyl) quinolin-5 (1H, 4H, 6H)-one]

Source: article PMC3977054, “Design, Synthesis and Biological Evaluation of 5-Oxo-1,4,5,6,7,8 Hexahydroquinoline Derivatives as Selective Cyclooxygenase-2 Inhibitors” (Iranian Journal of Pharmaceutical Research : IJPR, 2014)
